Laboratory results as given in PubChem BioAssay (NCI).
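Protocol summary: plate cells (96-well), add compound at 5 concentrations, incubate 48 h, interpolate endpoints linearly. At the GI50, growth is halved. TGI: total growth inhibition.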

Tests used:
Experiment in all cases: NCI anticancer screen, dose series, 48 h
[1] = system: 786-0 renal
[2] = system: A498 renal
[3] = system: A549 NSCLC
[4] = system: BT-549 breast
[5] = system: CAKI-1 renal
[6] = system: CCRF-CEM leukemia
[7] = system: COLO 205 colon
[8] = system: DU-145 prostate
[9] = system: EKVX NSCLC
[10] = system: HCC-2998 colon
[11] = system: HCT-116 colon
[12] = system: HCT-15 colon
[13] = system: HL-60(TB) leukemia
[14] = system: HOP-62 NSCLC
[15] = system: HOP-92 NSCLC
[16] = system: HS 578T breast
[17] = system: IGROV1 ovarian
[18] = system: K-562 leukemia
[19] = system: KM12 colon
[20] = system: LOX IMVI melanoma
[21] = system: M14 melanoma
[22] = system: MALME-3M melanoma
[23] = system: MCF7 breast
[24] = system: MDA-MB-231 breast
[25] = system: MOLT-4 leukemia
[26] = system: NCI-H226 lung
[27] = system: NCI-H23 lung
[28] = system: NCI-H460 lung
[29] = system: NCI-H522 lung
[30] = system: NCI/ADR-RES ovarian
[31] = system: OVCAR-3 ovarian
[32] = system: OVCAR-4 ovarian
[33] = system: OVCAR-8 ovarian
[34] = system: PC-3 prostate
[35] = system: RPMI-8226 leukemia
[36] = system: RXF 393 renal
[37] = system: SF-268 CNS
[38] = system: SF-295 CNS
[39] = system: SF-539 CNS
[40] = system: SK-MEL-2 melanoma
[41] = system: SK-MEL-28 melanoma
[42] = system: SK-MEL-5 melanoma
[43] = system: SK-OV-3 ovarian
[44] = system: SN12C renal
[45] = system: SNB-19 CNS
[46] = system: SNB-75 CNS
[47] = system: SR leukemia
[48] = system: SW-620 colon
[49] = system: T-47D breast
[50] = system: TK-10 renal
[51] = system: U251 CNS
[52] = system: UACC-257 melanoma
[53] = system: UACC-62 melanoma
[54] = system: UO-31 renal
[55] = system: ACHN renal
[56] = system: OVCAR-5 ovarian
[57] = system: MDA-MB-435

With `C1=C2CNCC3=Cc4ccc5ccccc5c4OC23Oc2c1ccc1ccccc21` the GI50 [1] was 5.1 µM, the TGI [1] was 31.5 µM and the GI50 [2] was 3.87 µM. For the same compound, the TGI [2] was 17 µM, the GI50 [3] was 4.48 µM and the TGI [3] was 20.5 µM. It also gave a GI50 [4] of 11.3 µM, a TGI [4] of 40.7 µM and a GI50 [5] of 3.29 µM. For the same compound, the TGI [5] was 20.7 µM, the GI50 [6] was 3.65 µM and the TGI [6] was greater than 100 µM. It also gave a GI50 [7] of 2.09 µM, a TGI [7] of 4.23 µM and a GI50 [8] of 3.29 µM. The TGI [8] was 11.1 µM, the GI50 [9] was 5.81 µM and the TGI [9] was 34.1 µM. For the same compound, the GI50 [10] was 3.99 µM, the TGI [10] was 19.7 µM and the GI50 [11] was 3.01 µM. It also gave a TGI [11] of 13.1 µM, a GI50 [12] of 3.9 µM and a TGI [12] of 22.6 µM. For the same compound, the GI50 [13] was 2.69 µM, the TGI [13] was 7.68 µM and the GI50 [14] was 4.47 µM. The TGI [14] was 16.7 µM, the GI50 [15] was 2.86 µM and the TGI [15] was 17.1 µM. For the same compound, the GI50 [16] was 2.24 µM, the TGI [16] was 10.4 µM and the GI50 [17] was 9.59 µM. The TGI [17] was 28.7 µM, the GI50 [18] was 2.95 µM and the TGI [18] was 21.2 µM. It also gave a GI50 [19] of 3.83 µM, a TGI [19] of 16.3 µM and a GI50 [20] of 2.43 µM. For the same compound, the TGI [20] was 7.48 µM, the GI50 [21] was 2.17 µM and the TGI [21] was 5.08 µM. For the same compound, the GI50 [22] was 12.5 µM, the TGI [22] was 38.5 µM and the GI50 [23] was 2.83 µM. It also gave a TGI [23] of 12.7 µM, a GI50 [24] of 9.34 µM and a TGI [24] of 27.2 µM. For the same compound, the GI50 [25] was 2.86 µM, the TGI [25] was 10.6 µM and the GI50 [26] was 10.6 µM. It also gave a TGI [26] of 27.6 µM, a GI50 [27] of 6.94 µM and a TGI [27] of 32 µM. It also gave a GI50 [28] of 3.27 µM, a TGI [28] of 13.1 µM and a GI50 [29] of 3.01 µM. It also gave a TGI [29] of 13.1 µM, a GI50 [30] of 2.1 µM and a TGI [30] of 6.06 µM. It also gave a GI50 [31] of 2.34 µM, a TGI [31] of 5.5 µM and a GI50 [32] of 4.71 µM. It also gave a TGI [32] of 19.8 µM, a GI50 [33] of 2.99 µM and a TGI [33] of 14.9 µM. The GI50 [34] was 3.5 µM, the TGI [34] was 18.2 µM and the GI50 [35] was 5.44 µM. The TGI [35] was 65.3 µM, the GI50 [36] was 1.79 µM and the TGI [36] was 6.16 µM. The GI50 [37] was 5.64 µM, the TGI [37] was 22.1 µM and the GI50 [38] was 3.07 µM. The TGI [38] was 15.6 µM, the GI50 [39] was 3.36 µM and the TGI [39] was 14.9 µM. For the same compound, the GI50 [40] was 5.47 µM, the TGI [40] was 22.8 µM and the GI50 [41] was 7.38 µM. It also gave a GI50 [42] of 3.15 µM, a TGI [42] of 13.9 µM and a GI50 [43] of 3.41 µM. For the same compound, the TGI [43] was 12.8 µM, the GI50 [44] was 4.22 µM and the TGI [44] was 20.1 µM. The GI50 [45] was 6.95 µM, the TGI [45] was 29.3 µM and the GI50 [46] was 2.32 µM. It also gave a TGI [46] of 11.5 µM, a GI50 [47] of 2.2 µM and a TGI [47] of 5.4 µM. For the same compound, the GI50 [48] was 2.52 µM, the TGI [48] was 10.5 µM and the GI50 [49] was 8.28 µM. For the same compound, the TGI [49] was 23.2 µM, the GI50 [50] was 9.08 µM and the TGI [50] was 27.4 µM. The GI50 [51] was 3.26 µM, the TGI [51] was 14.8 µM and the GI50 [52] was 12.6 µM. For the same compound, the TGI [52] was 38.7 µM, the GI50 [53] was 5.05 µM and the TGI [53] was 21.7 µM. The GI50 [54] was 3.54 µM and the TGI [54] was 21.5 µM.

For `O=C(/C=C/c1cn(-c2ccccc2)nc1-c1ccc([N+](=O)[O-])cc1)c1ccc(Cl)cc1`, the GI50 [1] was 3.94 µM, the TGI [1] was 55.3 µM and the GI50 [2] was 4.99 µM. It also gave a TGI [2] greater than 100 µM, a GI50 [55] of 3.64 µM and a TGI [55] greater than 43.6 µM. For the same compound, the GI50 [4] was 3.13 µM, the TGI [4] was greater than 32.1 µM and the GI50 [5] was greater than 21.3 µM. For the same compound, the TGI [5] was greater than 100 µM, the GI50 [9] was greater than 22.3 µM and the TGI [9] was greater than 100 µM. For the same compound, the GI50 [10] was greater than 100 µM, the TGI [10] was greater than 100 µM and the GI50 [11] was 2.42 µM. It also gave a TGI [11] greater than 100 µM, a TGI [13] greater than 100 µM and a GI50 [14] of 14.9 µM. The TGI [14] was 51.1 µM, the GI50 [15] was 3.36 µM and the TGI [15] was 70.1 µM. For the same compound, the GI50 [16] was 1.92 µM, the TGI [16] was 5.64 µM and the GI50 [17] was 3.54 µM. It also gave a TGI [17] greater than 100 µM, a GI50 [18] of 0.0883 µM and a TGI [18] of 2.73 µM. For the same compound, the GI50 [22] was 2.44 µM, the TGI [22] was 6.59 µM and the GI50 [24] was 2.9 µM. The TGI [24] was greater than 100 µM, the GI50 [25] was 1.27 µM and the TGI [25] was greater than 100 µM. It also gave a TGI [26] greater than 100 µM, a GI50 [27] of 3.67 µM and a TGI [27] greater than 100 µM. For the same compound, the GI50 [29] was 6.41 µM, the TGI [29] was greater than 100 µM and the GI50 [30] was 3.86 µM. It also gave a TGI [30] greater than 100 µM, a GI50 [56] greater than 100 µM and a TGI [56] greater than 100 µM. It also gave a GI50 [33] of 6.33 µM, a TGI [33] greater than 100 µM and a GI50 [36] of 1.92 µM. For the same compound, the TGI [36] was 5.19 µM, the GI50 [37] was 2.78 µM and the TGI [37] was greater than 100 µM. For the same compound, the GI50 [38] was 2.68 µM, the TGI [38] was 12.3 µM and the GI50 [39] was 2.19 µM. The GI50 [40] was 5.03 µM, the TGI [40] was 23 µM and the TGI [42] was greater than 100 µM. It also gave a GI50 [43] of 7.83 µM, a TGI [43] greater than 77.3 µM and a GI50 [44] of 4.54 µM. For the same compound, the TGI [44] was greater than 100 µM, the GI50 [45] was 4.12 µM and the TGI [45] was 27 µM. The GI50 [46] was 1.65 µM, the TGI [46] was 4.84 µM and the GI50 [47] was 2.76 µM. For the same compound, the TGI [47] was greater than 100 µM, the GI50 [49] was 1.22 µM and the TGI [49] was greater than 100 µM. For the same compound, the GI50 [50] was 3.09 µM, the TGI [50] was 13.4 µM and the GI50 [52] was greater than 100 µM. It also gave a TGI [52] greater than 100 µM, a GI50 [53] of 6.01 µM and a TGI [53] greater than 100 µM.

`Cc1c(C(=O)OCc2ccccc2)[n+](=O)c2cc(F)c(F)cc2n1[O-]` was tested, and the TGI [1] was greater than 100 µM, the TGI [2] was 3.12 µM and the TGI [55] was 3.85 µM. For the same compound, the TGI [4] was 3.62 µM, the TGI [5] was 3.92 µM and the TGI [6] was greater than 100 µM. For the same compound, the TGI [7] was 9.62 µM, the TGI [10] was 4.68 µM and the TGI [11] was greater than 100 µM. The TGI [12] was greater than 100 µM, the TGI [13] was 3.53 µM and the TGI [14] was greater than 100 µM. The TGI [16] was 2.97 µM, the TGI [17] was 3.3 µM and the TGI [18] was greater than 100 µM. The TGI [19] was 39.4 µM, the TGI [22] was 4.48 µM and the TGI [23] was 6.32 µM. It also gave a TGI [57] of 3.94 µM, a TGI [25] of 5.5 µM and a TGI [26] of 6.74 µM. It also gave a TGI [27] of 6.27 µM, a TGI [28] of 6.6 µM and a TGI [29] of 3.96 µM. The TGI [30] was greater than 100 µM, the TGI [32] was 3.53 µM and the TGI [56] was greater than 100 µM. It also gave a TGI [35] greater than 100 µM, a TGI [37] of 4.53 µM and a TGI [38] of 4.06 µM. It also gave a TGI [39] of 5.75 µM, a TGI [40] of 3.51 µM and a TGI [41] of 4.07 µM. It also gave a TGI [45] of 3.87 µM, a TGI [46] of 4.68 µM and a TGI [47] of 3.19 µM. For the same compound, the TGI [49] was 4.86 µM, the TGI [50] was 37.7 µM and the TGI [52] was 4 µM. It also gave a TGI [54] of 3.36 µM.
